In patent US10030007B2, “Quinazolin-THF-amines as PDE1 inhibitors” (H. Lundbeck A/S, priority 2013, dated 2018):

Tests used:
Assay type in all cases: biochemical
Details in all cases: 15 nM tritium labelled cAMP, 1 h at room temperature, SPA beads
[1] = biological target: PDE1B (Homo sapiens, UniProt Q01064); experiment: PDE1 inhibition assay (SPA), PDE1B
Experimental: (§1) PDE1A, PDE1B and PDE1C assays were performed as follows: the assays was performed in 60 μL samples containing a fixed amount of the PDE1 enzyml (sufficient to convert 20-25% of the cyclic nucleotide substrate), a buffer (50 mM HEPES pH 7.6; 10 mM MgCl2; 0.02% Tween20), 0.1 mg/ml BSA, 15 nM tritium labelled cAMP and varying amounts of inhibitors. Reactions were initiated by addition of the cyclic nucleotide substrate, and reactions were allowed to proceed for 1 h at room temperature before being terminated through mixing with 20 μL (0.2 mg) yttrium silicate SPA beads (PerkinElmer). The beads were allowed to settle for 1 h in the dark before the plates were counted in a Wallac 1450 Microbeta counter. The measured signals were converted to activity relative to an uninhibited control (100%) and IC50 values were calculated using XlFit (model 205, IDBS).

[2] = biological target: PDE1A (Homo sapiens, UniProt P54750); experiment: PDE1 inhibition assay (SPA), PDE1A
Experimental: as §1

[3] = biological target: PDE1C (Homo sapiens, UniProt Q14123); experiment: PDE1 inhibition assay (SPA), PDE1C
Experimental: as §1

Chain of PDE1A (P54750 whole entry): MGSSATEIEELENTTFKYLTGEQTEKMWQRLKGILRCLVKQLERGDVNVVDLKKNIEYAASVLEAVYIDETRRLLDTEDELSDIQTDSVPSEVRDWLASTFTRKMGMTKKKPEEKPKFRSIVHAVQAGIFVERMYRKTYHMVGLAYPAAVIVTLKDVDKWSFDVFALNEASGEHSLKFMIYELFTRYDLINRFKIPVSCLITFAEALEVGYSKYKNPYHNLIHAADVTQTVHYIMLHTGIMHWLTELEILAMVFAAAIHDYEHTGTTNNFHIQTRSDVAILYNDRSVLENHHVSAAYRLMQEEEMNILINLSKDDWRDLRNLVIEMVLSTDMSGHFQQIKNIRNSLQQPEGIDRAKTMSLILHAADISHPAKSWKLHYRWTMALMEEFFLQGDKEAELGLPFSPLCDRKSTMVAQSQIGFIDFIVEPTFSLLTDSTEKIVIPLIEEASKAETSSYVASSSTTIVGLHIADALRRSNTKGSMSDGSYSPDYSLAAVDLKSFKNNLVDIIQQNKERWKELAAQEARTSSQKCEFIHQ
Chain of PDE1C (Q14123 whole entry): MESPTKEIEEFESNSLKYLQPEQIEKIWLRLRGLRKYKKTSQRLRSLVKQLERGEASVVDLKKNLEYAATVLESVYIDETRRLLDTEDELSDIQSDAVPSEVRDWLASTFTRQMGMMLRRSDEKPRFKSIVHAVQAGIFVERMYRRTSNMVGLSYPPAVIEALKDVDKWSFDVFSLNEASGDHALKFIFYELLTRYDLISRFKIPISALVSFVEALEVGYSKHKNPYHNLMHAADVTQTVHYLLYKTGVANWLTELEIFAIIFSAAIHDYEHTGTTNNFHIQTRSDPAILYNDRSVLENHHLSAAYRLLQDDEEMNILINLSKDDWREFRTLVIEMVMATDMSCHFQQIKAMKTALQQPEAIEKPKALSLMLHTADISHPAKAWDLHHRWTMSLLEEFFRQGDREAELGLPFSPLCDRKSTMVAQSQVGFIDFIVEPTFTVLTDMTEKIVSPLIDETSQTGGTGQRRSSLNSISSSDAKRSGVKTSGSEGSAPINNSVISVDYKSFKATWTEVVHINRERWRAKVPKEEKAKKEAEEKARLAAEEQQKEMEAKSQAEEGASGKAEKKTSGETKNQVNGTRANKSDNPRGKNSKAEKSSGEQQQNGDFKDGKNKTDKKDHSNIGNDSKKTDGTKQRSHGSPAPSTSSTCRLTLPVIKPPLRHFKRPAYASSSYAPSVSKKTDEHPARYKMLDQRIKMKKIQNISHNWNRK
Chain of PDE1B (Q01064 whole entry): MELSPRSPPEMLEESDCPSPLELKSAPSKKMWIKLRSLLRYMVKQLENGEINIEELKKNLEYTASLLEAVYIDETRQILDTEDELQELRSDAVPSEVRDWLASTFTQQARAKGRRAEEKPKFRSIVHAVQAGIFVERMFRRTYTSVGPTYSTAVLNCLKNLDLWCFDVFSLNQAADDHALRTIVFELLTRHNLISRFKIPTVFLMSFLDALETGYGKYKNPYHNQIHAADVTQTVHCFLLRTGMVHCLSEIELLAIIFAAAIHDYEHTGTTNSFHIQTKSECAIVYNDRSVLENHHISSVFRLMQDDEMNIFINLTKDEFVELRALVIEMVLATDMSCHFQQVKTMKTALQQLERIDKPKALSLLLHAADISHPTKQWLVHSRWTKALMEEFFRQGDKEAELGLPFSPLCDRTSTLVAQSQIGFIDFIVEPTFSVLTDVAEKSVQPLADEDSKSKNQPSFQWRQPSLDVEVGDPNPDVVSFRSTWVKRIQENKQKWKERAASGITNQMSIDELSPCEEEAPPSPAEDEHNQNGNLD

| Structure (SMILES) | IC50 [1] | IC50 [2] | IC50 [3] |
| --- | --- | --- | --- |
| COc1ccc2c(N[C@@H]3CCO[C@H]3C3CC3)ncnc2c1OC (relative stereo) [Compound 2, trans-N-(-2-cyclopropyltetrahydrofuran-3-yl)-7,8-dimethoxyquinazolin-4-amine] | 260 nM | 2400 nM | 1300 nM |
| COc1ccc2c(NC3CCOC3C3CC3)ncnc2c1OC (stereo not drawn) [Compound 25, N-(2-Cyclopropyltetrahydrofuran-3-yl)-7,8-dimethoxyquinazolin-4-amine] | 260 nM | 2400 nM | 1300 nM |
